Results from patent US7704992B2, “Hepatitis C virus inhibitors” (Bristol-Myers Squibb Company, priority 2008, dated 2010).
Like-named read-outs stand apart in the source and are kept apart here.

Test system: HCV 1b-377-neo replicon cells
Experiment: HCV Replicon assay, HCV 1b genotype
Type: cell-based
Description: An HCV Replicon assay was utilized in the present disclosure, and was prepared, conducted and validated as described in commonly owned PCT/US2006/022197 and in O'Boyle et. al. Antimicrob Agents Chemother. 2005 April; 49(4): 1346-53.
HCV 1b-377-neo replicon cells were used to test the currently described compound series as well as cells resistant to compound A containing a Y2065H mutation in NS5A (described in application PCT/US2006/022197). The compounds tested were determined to have more than 10-fold less inhibitory activity on cells containing the mutation than wild-type cells indicating a related mechanism of action between the two compound series. Thus, the compounds of the present disclosure can be effective to inhibit the function of the HCV NS5A protein and are understood to be as effective in combinations as previously described in application PCT/US2006/022197 and commonly owned WO/04014852. Further, the compounds of the present disclosure can be effective against the HCV 1b genotype. It should also be understood that the compounds of the present disclosure can inhibit multiple genotypes of HCV. […] In one embodiment compounds of the present disclosure are active against the 1a, 1b, 2a, 2b, 3a, 4a, and 5a genotypes.

[1] = Hepatitis C virus, class symbol, read-out: EC50 range against HCV 1b

COC(=O)N[C@H](C(=O)N1CCC[C@H]1c1ncc(-c2ccc3c(c2)C(C)(C)c2cc(-c4cnc([C@@H]5CCCN5C(=O)[C@@H](NC(=O)OC)C(C)C)[nH]4)ccc2-3)[nH]1)C(C)C [Example 14, methyl ((1S)-1-(((2S)-2-(5-(7-(2-((2S)-1-((2S)-2-((methoxycarbonyl)amino)-3-methylbutanoyl)-2-pyrrolidinyl)-1H-imidazol-5-yl)-9,9-dimethyl-9H-fluoren-2-yl)-1H-imidazol-2-yl)-1-pyrrolidinyl)carbonyl)-2-methylpropyl)carbamate]
EC50 [1]: 1 to 100 pM

COC(=O)N[C@H](C(=O)N1CCC[C@H]1c1ncc(-c2ccc3c(c2)C(N(C)C)c2cc(-c4cnc([C@@H]5CCCN5C(=O)[C@@H](NC(=O)OC)C(C)C)[nH]4)ccc2-3)[nH]1)C(C)C [Example 3, methyl ((1S)-1-(((2S)-2-(5-(9-(dimethylamino)-7-(2-((2S)-1-((2S)-2-((methoxycarbonyl)amino)-3-methylbutanoyl)-2-pyrrolidinyl)-1H-imidazol-5-yl)-9H-fluoren-2-yl)-1H-imidazol-2-yl)-1-pyrrolidinyl)carbonyl)-2-methylpropyl)carbamate]
EC50 [1]: 101 to 999 pM

COC(=O)N[C@@H](C)C(=O)N1CCC[C@H]1c1ncc(-c2ccc3c(c2)COCc2cc(-c4cnc([C@@H]5CCCN5C(=O)[C@H](C)NC(=O)OC)[nH]4)ccc2-3)[nH]1 [Example 9, methyl ((1S)-2-((2S)-2-(4-(9-(2-((2S)-1-(N-(methoxycarbonyl)-L-alanyl)-2-pyrrolidinyl)-1H-imidazol-4-yl)-5,7-dihydrodibenzo[c,e]oxepin-3-yl)-1H-imidazol-2-yl)-1-pyrrolidinyl)-1-methyl-2-oxoethyl)carbamate]
EC50 [1]: 1 to 100 pM

COCCn1c2cc(-c3cnc([C@@H]4CCCN4C(=O)[C@@H](NC(=O)OC)[C@@H](C)OC)[nH]3)ccc2c2ccc(-c3cnc([C@@H]4CCCN4C(=O)[C@@H](NC(=O)OC)[C@@H](C)OC)[nH]3)cc21 [Example 35, methyl ((1S,2R)-2-methoxy-1-(((2S)-2-(5-(7-(2-((2S)-1-(N-(methoxycarbonyl)-O-methyl-L-threonyl)-2-pyrrolidinyl)-1H-imidazol-5-yl)-9-(2-methoxyethyl)-9H-carbazol-2-yl)-1H-imidazol-2-yl)-1-pyrrolidinyl)carbonyl)propyl)carbamate]
EC50 (Hepatitis C virus, value in pM, read-out: EC50 value against HCV 1b): 662 pM

COC(=O)N[C@H](C(=O)N1CCC[C@H]1c1ncc(-c2ccc3c(c2)oc2cc(-c4cnc([C@@H]5CCCN5C(=O)[C@@H](NC(=O)OC)C5CC5)[nH]4)ccc23)[nH]1)C1CC1 [Example 19, dimethyl (dibenzo[b,d]furan-3,7-diylbis(1H-imidazole-4,2-diyl(2S)-2,1-pyrrolidinediyl((1S)-1-cyclopropyl-2-oxo-2,1-ethanediyl)))biscarbamate]
EC50 [1]: 1 to 100 pM

COC(=O)N[C@H](C(=O)N1CCC[C@H]1c1ncc(-c2ccc3c(c2)oc2cc(-c4cnc([C@@H]5CCCN5C(=O)[C@@H](NC(=O)OC)C(C)(C)O)[nH]4)ccc23)[nH]1)C(C)(C)O [Example 21, methyl ((1S)-2-hydroxy-1-(((2S)-2-(4-(7-(2-((2S)-1-((2S)-3-hydroxy-2-((methoxycarbonyl)amino)-3-methylbutanoyl)-2-pyrrolidinyl)-1H-imidazol-4-yl)dibenzo[b,d]furan-3-yl)-1H-imidazol-2-yl)-1-pyrrolidinyl)carbonyl)-2-methylpropyl)carbamate]
EC50 [1]: 1 to 100 pM

COC(=O)N[C@H](C(=O)N1CCC[C@H]1c1ncc(-c2ccc3c(c2)Cc2cc(-c4cnc([C@@H]5CCCN5C(=O)[C@@H](NC(=O)OC)C(C)C)[nH]4)ccc2-3)[nH]1)C(C)C [Example 4, methyl ((1S)-1-(((2S)-2-(5-(7-(2-((2S)-1-((2S)-2-((methoxycarbonyl)amino)-3-methylbutanoyl)-2-pyrrolidinyl)-1H-imidazol-5-yl)-9H-fluoren-2-yl)-1H-imidazol-2-yl)-1-pyrrolidinyl)carbonyl)-2-methylpropyl)carbamate]
EC50 [1]: 1 to 100 pM

COC(=O)N[C@H](C(=O)N1CCC[C@H]1c1ncc(-c2ccc3c(c2)COCc2cc(-c4cnc([C@@H]5CCCN5C(=O)[C@@H](NC(=O)OC)C(C)C)[nH]4)ccc2-3)[nH]1)C(C)C [Example 8, methyl ((1S)-1-(((2S)-2-(5-(9-(2-((2S)-1-((2S)-2-((methoxycarbonyl)amino)-3-methylbutanoyl)-2-pyrrolidinyl)-1H-imidazol-4-yl)-5,7-dihydrodibenzo[c,e]oxepin-3-yl)-1H-imidazol-2-yl)-1-pyrrolidinyl)carbonyl)-2-methylpropyl)carbamate]
EC50 [1]: 1 to 100 pM

COC(=O)N[C@H](C(=O)N1CCC[C@H]1c1ncc(-c2ccc3c(c2)C(C)(N(C)C)c2cc(-c4cnc([C@@H]5CCCN5C(=O)[C@@H](NC(=O)OC)C(C)C)[nH]4)ccc2-3)[nH]1)C(C)C [Example 13, methyl ((1S)-1-(((2S)-2-(5-(9-(dimethylamino)-7-(2-((2S)-1-((2S)-2-((methoxycarbonyl)amino)-3-methylbutanoyl)-2-pyrrolidinyl)-1H-imidazol-5-yl)-9-methyl-9H-fluoren-2-yl)-1H-imidazol-2-yl)-1-pyrrolidinyl)carbonyl)-2-methylpropyl)carbamate]
EC50 [1]: 1 to 100 pM

COC(=O)N[C@H](C(=O)N1CCC[C@H]1c1ncc(-c2ccc3c(c2)C2(CCC2)c2cc(-c4cnc([C@@H]5CCCN5C(=O)[C@@H](NC(=O)OC)C(C)C)[nH]4)ccc2-3)[nH]1)C(C)C [Example 16, methyl ((1S)-1-(((2S)-2-(5-(7′-(2-((2S)-1-((2S)-2-((methoxycarbonyl)amino)-3-methylbutanoyl)-2-pyrrolidinyl)-1H-imidazol-5-yl)spiro[cyclobutane-1,9′-fluoren]-2′-yl)-1H-imidazol-2-yl)-1-pyrrolidinyl)carbonyl)-2-methylpropyl)carbamate]
EC50 [1]: 1 to 100 pM

COCC[C@H](NC(=O)OC)C(=O)N1CCC[C@H]1c1ncc(-c2ccc3c4ccc(-c5cnc([C@@H]6CCCN6C(=O)[C@H](CCOC)NC(=O)OC)[nH]5)cc4n(C)c3c2)[nH]1 [Example 24, methyl ((1S)-3-methoxy-1-(((2S)-2-(5-(7-(2-((2S)-1-(N-(methoxycarbonyl)-O-methyl-L-homoseryl)-2-pyrrolidinyl)-1H-imidazol-5-yl)-9-methyl-9H-carbazol-2-yl)-1H-imidazol-2-yl)-1-pyrrolidinyl)carbonyl)propyl) carbamate]
EC50 (class symbol, read-out: EC50 range against HCV 1b): 101 to 999 pM

COC(=O)N[C@H](C(=O)N1CCC[C@H]1c1ncc(-c2ccc3c(c2)CN(C)Cc2cc(-c4cnc([C@@H]5CCCN5C(=O)[C@@H](NC(=O)OC)C(C)C)[nH]4)ccc2-3)[nH]1)C(C)C [Example 6, methyl ((1S)-1-(((2S)-2-(5-(9-(2-((2S)-1-((2S)-2-((methoxycarbonyl)amino)-3-methylbutanoyl)-2-pyrrolidinyl)-1H-imidazol-5-yl)-6-methyl-6,7-dihydro-5H-dibenzo[c,e]azepin-3-yl)-1H-imidazol-2-yl)-1-pyrrolidinyl)carbonyl)-2-methylpropyl) carbamate]
EC50 (Hepatitis C virus, value in nM, read-out: EC50 value against HCV 1b): 2000 pM

COC(=O)N[C@@H](C)C(=O)N1CCC[C@H]1c1ncc(-c2ccc3c4ccc(-c5cnc([C@@H]6CCCN6C(=O)[C@H](C)NC(=O)OC)[nH]5)cc4n(C)c3c2)[nH]1 [Example 22, methyl ((1S)-2-((2S)-2-(5-(7-(2-((2S)-1-(N-(methoxycarbonyl)-L-alanyl)-2-pyrrolidinyl)-1H-imidazol-5-yl)-9-methyl-9H-carbazol-2-yl)-1H-imidazol-2-yl)-1-pyrrolidinyl)-1-methyl-2-oxoethyl)carbamate]
EC50 [1]: 1000 to 99000 pM

COC(=O)N[C@H](C(=O)N1CCC[C@H]1c1ncc(-c2ccc3c(c2)COCc2cc(-c4cnc([C@@H]5CCCN5C(=O)[C@@H](NC(=O)OC)C5CCOCC5)[nH]4)ccc2-3)[nH]1)C1CCOCC1 [Example 10, dimethyl (5,7-dihydrodibenzo[c,e]oxepine-3,9-diylbis(1H-imidazole-4,2-diyl(2S)-2,1-pyrrolidinediyl((1S)-2-oxo-1-(tetrahydro-2H-pyran-4-yl)-2,1-ethanediyl)))biscarbamate]
EC50 [1]: 101 to 999 pM

CCN(CC)C(C(=O)N1CCC[C@H]1c1ncc(-c2ccc3c(c2)COCc2cc(-c4cnc([C@@H]5CCCN5C(=O)C(c5ccccc5)N(CC)CC)[nH]4)ccc2-3)[nH]1)c1ccccc1 (stereo in doubt) [Example 12, (1S,1′S)-2,2′-(5,7-dihydrodibenzo[c,e]oxepine-3,9-diylbis(1H-imidazole-4,2-diyl(2S)-2,1-pyrrolidinediyl))bis(N,N-diethyl-2-oxo-1-phenylethanamine)]
EC50 [1]: 101 to 999 pM

CCN(CC)C(C(=O)N1CCC[C@H]1c1ncc(-c2ccc3c(c2)CN(C)Cc2cc(-c4cnc([C@@H]5CCCN5C(=O)C(c5ccccc5)N(CC)CC)[nH]4)ccc2-3)[nH]1)c1ccccc1 (stereo in doubt) [Example 7, (1S,1′S) -2,2′-((6-methyl-6,7-dihydro-5H-dibenzo[c,e]azepine-3,9-diyl)bis(1H-imidazole-4,2-diyl(2S)-2,1-pyrrolidinediyl)) bis(N,N-diethyl-2-oxo-1-phenylethanamine)]
EC50 [1]: 101 to 999 pM
